# Source: US9814704B2, “Substituted pyrrolo[2,3-b]pyridines as MLK inhibitors” (The University of Rochester, priority 2008, dated 2017)
# Counter-ions that a name gives are not always drawn.
# Biological target: MLK3 (Homo sapiens (Human), UniProt Q16584)
# Experiment: Radiometric Filter Plate MLK3 Assay
# Assay type: biochemical
# Conditions: 200 ng (130 nM) MLK3, 1 μM inactive MKK7b, 2 μM cold ATP (Km), 33P ATP, twenty minute incubation; read-out: MK3 IC50
# Method: Radiometric Filter Plate MLK3 Assay
# After a twenty minute incubation, the reactions were washed through filter plates and read on a scintillation counter. Results are shown in Table 4 below, in which +++ indicates ≦0.1 μM, ++ indicates >0.1 μM and ≦1 μM, and + indicates >1 μM.
# Chain of MLK3 (Q16584 whole entry): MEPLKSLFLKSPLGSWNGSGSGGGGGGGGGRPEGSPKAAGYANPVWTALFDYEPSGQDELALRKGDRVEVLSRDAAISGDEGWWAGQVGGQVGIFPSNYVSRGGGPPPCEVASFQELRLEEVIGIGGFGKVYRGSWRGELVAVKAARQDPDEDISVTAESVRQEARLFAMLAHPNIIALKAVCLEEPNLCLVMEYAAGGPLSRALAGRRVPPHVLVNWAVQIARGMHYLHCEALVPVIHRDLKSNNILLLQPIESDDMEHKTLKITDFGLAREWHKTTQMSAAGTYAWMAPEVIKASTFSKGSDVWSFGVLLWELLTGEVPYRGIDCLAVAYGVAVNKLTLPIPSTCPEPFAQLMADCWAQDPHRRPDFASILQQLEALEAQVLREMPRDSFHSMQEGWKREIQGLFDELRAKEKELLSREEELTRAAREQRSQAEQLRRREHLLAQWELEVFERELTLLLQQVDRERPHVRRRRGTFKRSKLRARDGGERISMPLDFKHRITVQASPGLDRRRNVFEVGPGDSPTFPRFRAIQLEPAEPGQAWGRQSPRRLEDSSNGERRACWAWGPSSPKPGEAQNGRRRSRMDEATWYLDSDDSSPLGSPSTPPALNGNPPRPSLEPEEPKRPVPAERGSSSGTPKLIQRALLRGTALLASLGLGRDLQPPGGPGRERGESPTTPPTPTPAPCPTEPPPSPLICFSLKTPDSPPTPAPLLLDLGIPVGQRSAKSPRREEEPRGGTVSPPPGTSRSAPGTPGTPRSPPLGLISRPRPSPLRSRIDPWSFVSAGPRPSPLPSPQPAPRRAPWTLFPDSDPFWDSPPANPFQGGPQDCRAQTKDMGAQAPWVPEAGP
row,IC50,SMILES
1,< 100 nM,"COc1cc(-c2cnc3[nH]c(=O)n(-c4ccc5[nH]ccc5c4)c3n2)cc(OC)c1O [Example 62, 6-(4-hydroxy-3,5-dimethoxyphenyl)-1-(1H-indol-5-yl)-1H-imidazo[4,5-b]pyrazin-2(3H)-one]"
2,> 1000 nM,"COc1cc(OC)c(-c2cnc3[nH]c(=O)n(C4CCCC4)c3n2)c(OC)c1 [Example 94, 1-cyclopentyl-6-(2,4,6-trimethoxyphenyl)-1H-imidazo[4,5-b]pyrazin-2(3H)-one]"
3,> 1000 nM,"COc1cc(-c2cnc3[nH]cc(-c4ccc5[nH]ccc5c4)c3c2)ccc1OCCN(C)C [Example 35, 2-(4-(3-(1H-indol-5-yl)-1H-pyrrolo[2,3-b]pyridin-5-yl)-2-methoxyphenoxy)-N,N-dimethylethanamine]"
4,< 100 nM,"COc1cc(-c2cnc3[nH]c(=O)n(-c4ccc5[nH]ccc5c4)c3n2)cc(OC)c1OC [Example 40, 1-(1H-indol-5-yl)-6-(3,4,5-trimethoxyphenyl)-1H-imidazo[4,5-b]pyrazin-2(3H)-one]"
5,> 1000 nM,"CN(C)c1ccc(-c2cnc3[nH]cc(-c4ccc(F)c(Cl)c4)c3c2)cn1 [Example 22, 5-(3-(3-chloro-4-fluorophenyl)-1H-pyrrolo[2,3-b]pyridin-5-yl)-N,N-dimethylpyridin-2-amine]"
6,> 1000 nM,"COc1ccc(-c2cnc3[nH]c(=O)n(-c4ccc5[nH]ccc5c4)c3n2)cc1F [Example 49, 6-(3-fluoro-4-methoxyphenyl)-1-(1H-indol-5-yl)-1H-imidazo[4,5-b]pyrazin-2(3H)-one]"
7,> 1000 nM,"Cc1cc(C)cc(-c2cnc3[nH]c(=O)n(-c4ccc5c(ccn5C)c4)c3n2)c1 [Example 43, 6-(3,5-dimethylphenyl)-1-(1-methyl-1H-indol-5-yl)-1H-imidazo[4,5-b]pyrazin-2(3H)-one]"
8,< 100 nM,"O=c1[nH]c2ncc(-c3cc(F)c(O)c(F)c3)nc2n1-c1ccc2[nH]ccc2c1 [Example 59, 6-(3,5-difluoro-4-hydroxyphenyl)-1-(1H-indol-5-yl)-1H-imidazo[4,5-b]pyrazin-2(3H)-one]"
9,> 1000 nM,"COc1cc(-c2cnc3[nH]c(=O)n(-c4ccc(N5CCOCC5)nc4)c3n2)cc(OC)c1OC [Example 109, 1-(6-morpholinopyridin-3-yl)-6-(3,4,5-trimethoxyphenyl)-1H-imidazo[4,5-b]pyrazin-2(3H)-one]"
10,> 1000 nM,"COc1ccc(-n2c(=O)[nH]c3ncc(-c4ccncc4)nc32)cc1 [Example 71, 1-(4-methoxyphenyl)-6-(pyridin-4-yl)-1H-imidazo[4,5-b]pyrazin-2(3H)-one]"
11,< 100 nM,"CS(=O)(=O)Nc1ccc(-c2cnc3[nH]cc(-c4ccc5[nH]ccc5c4)c3c2)cc1 [Example 11, N-(4-(3-(1H-indol-5-yl)-1H-pyrrolo[2,3-b]pyridin-5-yl)phenyl)methanesulfonamide]"
12,> 1000 nM,"COc1cc(-c2cnc3c(c2)C(Cc2ccccc2)C(=O)N3)cc(OC)c1OC (stereo not drawn) [Example 137, 3-benzyl-5-(3,4,5-trimethoxy-phenyl)-1,3-dihydro-pyrrolo[2,3-b]pyridin-2-one]"
13,< 100 nM,"COc1cc(-c2cnc3[nH]c(=O)n(-c4ccc5cc[nH]c5c4)c3n2)cc(OC)c1OC [Example 113, 1-(1H-indol-6-yl)-6-(3,4,5-trimethoxyphenyl)-1H-imidazo[4,5-b]pyrazin-2(3H)-one]"
14,< 100 nM,"CN1CCN(Cc2ccc(-c3c[nH]c4ncc(-c5ccc(C(N)=O)cc5)cc34)cc2)CC1 [Example 162, 4-{3-[4-(4-methyl-piperazin-1-ylmethyl)-phenyl]-1H-pyrrolo[2,3-b]pyridin-5-yl}-benzamide]"
15,< 100 nM,"CN1CCN(C(=O)c2cccc(-c3cnc4[nH]cc(-c5ccc6[nH]ccc6c5)c4c3)c2)CC1 [Example 147, {3-[3-(1H-indol-5-yl)-1H-pyrrolo[2,3-b]pyridin-5-yl]-phenyl}-(4-methyl-piperazin-1-yl)-methanone]"
16,< 100 nM,"CN1CCN(Cc2ccc(-c3cnc4[nH]cc(-c5ccc6[nH]ccc6c5)c4c3)cc2)CC1=O [Example 141, 4-{4-[3-(1H-indol-5-yl)-1H-pyrrolo[2,3-b]pyridin-5-yl]-benzyl}-1-methyl-piperazin-2-one]"
17,< 100 nM,"CC(=O)N1CCN(C(=O)c2ccc(-c3cnc4[nH]cc(-c5ccc6[nH]ccc6c5)c4c3)cc2)CC1 [Example 146, 1-(4-{4-[3-(1H-indol-5-yl)-1H-pyrrolo[2,3-b]pyridin-5-yl]-benzoyl}-piperazin-1-yl)-ethanone]"
18,> 1000 nM,"O=c1[nH]c2ncc(-c3ccc(N4CCOCC4)cc3)nc2n1CC1CC1 [Example 86, 1-(cyclopropylmethyl)-6-(4-morpholinophenyl)-1H-imidazo[4,5-b]pyrazin-2(3H)-one]"
19,> 1000 nM,"COc1cc(-c2nc3c(nc2Cl)[nH]c(=O)n3CC2CC2)cc(OC)c1OC [Example 119, 5-chloro-1-(cyclopropylmethyl)-6-(3,4,5-trimethoxyphenyl)-1H-imidazo[4,5-b]pyrazin-2(3H)-one]"
20,< 100 nM,"COc1cc(-c2cnc3[nH]cc(-c4ccc(N(C)C)nc4)c3c2)cc(OC)c1OC [Example 19, N,N-dimethyl-5-(5-(3,4,5-trimethoxyphenyl)-1H-pyrrolo[2,3-b]pyridin-3-yl)pyridin-2-amine]"
21,< 100 nM,"COc1cc(-c2cnc3[nH]c(=O)n(-c4ccc5[nH]ccc5c4)c3n2)ccc1N [Example 60, 6-(4-amino-3-methoxyphenyl)-1-(1H-indol-5-yl)-1H-imidazo[4,5-b]pyrazin-2(3H)-one]"
22,> 1000 nM,"O=c1[nH]c2ncc(-c3ccncc3)nc2n1CC1CC1 [Example 82, 1-(cyclopropylmethyl)-6-(pyridin-4-yl)-1H-imidazo[4,5-b]pyrazin-2(3H)-one]"
23,> 1000 nM,"COc1cc(-c2cnc3c(c2)C(=Cc2cccc(C#N)c2)C(=O)N3)cc(OC)c1OC [Example 134, 3-[2-oxo-5-(3,4,5-trimethoxy-phenyl)-1,2-dihydro-pyrrolo[2,3-b]pyridin-3-ylidenemethyl]-benzonitrile]"
24,< 100 nM,"CC(C)(C)OC(=O)N1CCN(C(=O)c2ccc(-c3cnc4[nH]cc(-c5ccc(C(N)=O)cc5)c4c3)cc2)CC1 [Example 148, 4-{4-[3-(4-carbamoyl-phenyl)-1H-pyrrolo[2,3-b]pyridin-5-yl]-benzoyl}-piperazine-1-carboxylic acid tert-butyl ester]"
25,> 1000 nM,"O=c1[nH]c2ncc(-c3ccncc3)nc2n1-c1ccc2scnc2c1 [Example 98, 1-(benzo[d]thiazol-5-yl)-6-(pyridin-4-yl)-1H-imidazo[4,5-b]pyrazin-2(3H)-one]"
26,< 100 nM,"COc1cc(-c2cnc3[nH]c(=O)n(-c4ccc5[nH]c(C)cc5c4)c3n2)cc(OC)c1OC [Example 72, 1-(2-methyl-1H-indol-5-yl)-6-(3,4,5-trimethoxyphenyl)-1H-imidazo[4,5-b]pyrazin-2(3H)-one]"

# Same assay, conditions: read-out: MK3 IC50
row,IC50,SMILES
1,100 to 1000 nM,"O=c1[nH]c2ncc(-c3ccncc3)nc2n1-c1ccc2cn[nH]c2c1 [Example 93, 1-(1H-indazol-6-yl)-6-(pyridin-4-yl)-1H-imidazo[4,5-b]pyrazin-2(3H)-one]"
2,100 to 1000 nM,"COc1cc(-c2cnc3c(c2)C2(CCCC2)C(=O)N3)cc(OC)c1OC [Example 121, 5′-(3,4,5-trimethoxyphenyl)spiro[cyclopentane-1,3′-pyrrolo[2,3-b]pyridin]-2′(1′H)-one]"
3,100 to 1000 nM,"COc1ccc(-c2cnc3[nH]c(=O)n(-c4ccc5[nH]ccc5c4)c3n2)cc1N [Example 50, 6-(3-amino-4-methoxyphenyl)-1-(1H-indol-5-yl)-1H-imidazo[4,5-b]pyrazin-2(3H)-one]"
4,< 100 nM,"CNc1ccc(-c2cnc3[nH]cc(-c4ccc5[nH]ccc5c4)c3c2)cn1 [Example 30, 5-(3-(1H-indol-5-yl)-1H-pyrrolo[2,3-b]pyridin-5-yl)-N-methylpyridin-2-amine]"
5,100 to 1000 nM,"NC(=O)c1ccc(-c2c[nH]c3ncc(-c4ccc(N)nc4)cc23)cc1 [Example 28, 4-(5-(6-aminopyridin-3-yl)-1H-pyrrolo[2,3-b]pyridin-3-yl)benzamide]"
6,100 to 1000 nM,"COc1cc(-c2cnc3[nH]c(=O)n(-c4ccc5c(ccn5C)c4)c3n2)cc(OC)c1OC [Example 41, 1-(1-methyl-1H-indol-5-yl)-6-(3,4,5-trimethoxyphenyl)-1H-imidazo[4,5-b]pyrazin-2(3H)-one]"
7,100 to 1000 nM,"NC(=O)c1ccc(-c2c[nH]c3ncc(-c4cccc(C(=O)N5CCNCC5)c4)cc23)cc1 [Example 152, 4-{5-[3-(piperazine-1-carbonyl)-phenyl]-1H-pyrrolo[2,3-b]pyridin-3-yl}-benzamide, hydrochloride salt]"
8,100 to 1000 nM,"O=c1[nH]c2ncc(-c3cc(F)c(O)cc3F)nc2n1-c1ccc2[nH]ccc2c1 [Example 58, 6-(2,5-difluoro-4-hydroxyphenyl)-1-(1H-indol-5-yl)-1H-imidazo[4,5-b]pyrazin-2(3H)-one]"
9,100 to 1000 nM,"COc1cc(-c2cnc3[nH]c(=O)n(-c4ccc5[nH]ccc5c4)c3n2)ccc1OCCN1CCNCC1 [Example 67, 1-(1H-indol-5-yl)-6-(3-methoxy-4-(2-(piperazin-1-yl)ethoxy)phenyl)-1H-imidazo[4,5-b]pyrazin-2(3H)-one]"
10,100 to 1000 nM,"COc1cc(-c2cnc3[nH]c(=O)n(C4CCCC4)c3n2)ccc1OCCN1CCOCC1 [Example 108, 1-cyclopentyl-6-(3-methoxy-4-(2-morpholinoethoxy)phenyl)-1H-imidazo[4,5-b]pyrazin-2(3H)-one]"
11,100 to 1000 nM,"COc1cc(-c2cnc3[nH]c(=O)n(-c4ccc5cn[nH]c5c4)c3n2)cc(OC)c1OC [Example 90, 1-(1H-indazol-6-yl)-6-(3,4,5-trimethoxyphenyl)-1H-imidazo[4,5-b]pyrazin-2(3H)-one]"
12,100 to 1000 nM,"c1cc2cc(-c3cnc4[nH]cc(-c5ccc6[nH]ccc6c5)c4c3)ccc2[nH]1 [Example 12, 3,5-di(1H-indol-5-yl)-1H-pyrrolo[2,3-b]pyridine]"
13,100 to 1000 nM,"Cc1cc2cc(-n3c(=O)[nH]c4ncc(-c5ccc(O)cc5)nc43)ccc2[nH]1 [Example 84, 6-(4-hydroxyphenyl)-1-(2-methyl-1H-indol-5-yl)-1H-imidazo[4,5-b]pyrazin-2(3H)-one]"
